# Data as given in ChEMBL document CHEMBL5236579, “Hydrophobicity Determines the Bacterial Killing Rate of α-Helical Antimicrobial Peptides and Influences the Bacterial Resistance Development” (J Med Chem, 2022).
# Active and inactive are the calls of the source. No cut-off for these calls is given here. Where a SMILES comes first, the peptide text is derived from it.
# Tests used:
# [1] = tested on: Staphylococcus aureus; experiment: Antimicrobial activity against Staphylococcus aureus ATCC25923 by two fold broth microdilution method; type: functional; details: read-out: MIC
# [2] = tested on: Staphylococcus aureus; experiment: Antimicrobial activity against clinical isolates Staphylococcus aureus by two fold broth microdilution method; type: functional
# [3] = tested on: Bacillus cereus; experiment: Antimicrobial activity against clinical isolates Bacillus cereus by two fold broth microdilution method; type: functional
# [4] = tested on: Escherichia coli; experiment: Antimicrobial activity against Escherichia coli ATCC27622 by two fold broth microdilution method; type: functional
# [5] = tested on: Vibrio parahaemolyticus; experiment: Antimicrobial activity against Vibrio parahaemolyticus ATCC17802 by two fold broth microdilution method; type: functional
# [6] = tested on: Vibrio parahaemolyticus; experiment: Bactericidal activity against Vibrio parahaemolyticus ATCC17802 assessed as killing rate at 0.5 X MIC by measuring time limit of detection by bacterial killing kinetic assay; type: functional
# [7] = tested on: Cell membrane; experiment: Induction of inner membrane permeabilization in Vibrio parahaemolyticus ATCC17802 at 5 times MIC measured upto 200 mins by propidium iodide penetration assay; type: cell membranes
# [8] = tested on: Cell membrane; experiment: Induction of inner membrane permeabilization in Vibrio parahaemolyticus ATCC17802 assessed as calcein leakage at 5 times MIC by calcein-AM leakage assay; type: cell membranes; details: time <= 200.0 min, TDE = time-dependent effect
# [9] = tested on: Cell membrane; experiment: Induction of inner membrane permeabilization in Vibrio parahaemolyticus ATCC17802 assessed as increase in PI fluorescence intensity at 5 times MIC by propidium iodide penetration assay; type: cell membranes; details: time <= 200.0 min
# [10] = tested on: Cell membrane; experiment: Induction of bacterial inner membrane permeabilization in Vibrio parahaemolyticus ATCC17802 assessed as calcein leakage from large unilamellar vesicles liposomes at 5 times MIC by fluorescence based microplate reader assay; type: cell membranes; details: time <= 60.0 min, TDE = time-dependent effect
# [11] = tested on: Vibrio parahaemolyticus; experiment: Induction of morphological changes in Vibrio parahaemolyticus ATCC17802 assessed as massive cell collapse incubated at 5 times MIC and measured after 180 mins by scanning electron microscopy based analysis; type: functional, organism-based
# [12] = tested on: Vibrio parahaemolyticus; experiment: Induction of morphological changes in Vibrio parahaemolyticus ATCC17802 assessed as surface fibrosis incubated at 5 times MIC and measured after 180 mins by scanning electron microscopy based analysis; type: functional, organism-based
# [13] = tested on: Vibrio parahaemolyticus; experiment: Induction of morphological changes in Vibrio parahaemolyticus ATCC17802 assessed as cellular inclusion leakage incubated at 5 times MIC and measured after 180 mins by scanning electron microscopy based analysis; type: functional, organism-based
# [14] = tested on: HaCaT; experiment: Cytotoxicity against human HaCaT cells incubated for 48 hrs by MTT assay; type: toxicity, cell-based; details: dose < 250 µg/ml
# [15] = tested on: Peritoneal macrophage; experiment: Cytotoxicity against mouse peritoneal macrophage cells incubated for 48 hrs by MTT assay; type: toxicity, cell-based; details: dose < 250 µg/ml
# [16] = Hemolytic activity in human erythrocytes measured after 30 mins; type: toxicity, cell-based; details: erythrocyte, 0.5 h
# [17] = tested on: Cell membrane; experiment: Induction of cytoplasmic membrane permeabilization in Vibrio parahaemolyticus […] assessed as calcein transmembrane diffusion into interior of gaint unilamellar vesicles by measuring time to equilibrium between inside and outside of vesicles at 2 ug/mL by confocal microscopy based calcein-AM leakage assay; type: cell membranes; details: dose 2.0 µg/ml
# [18] = tested on: Cell membrane; experiment: Binding affinity to Vibrio parahaemolyticus ATCC17802 cell membrane assessed as increase in fluorescence intensity measured after 30 mins by flow cytometry analysis (reference value: 1.85%); type: cell membranes
# [19] = tested on: Cell membrane; experiment: Binding affinity to Vibrio parahaemolyticus ATCC17802 cell membrane assessed as increase in fluorescence intensity measured after 120 mins by flow cytometry analysis (reference value: 1.88%); type: cell membranes
# [20] = tested on: Cell membrane; experiment: Induction of outer membrane permeabilization in Vibrio parahaemolyticus ATCC17802 assessed as increase fluorescence intensity at 0.5 to 2 times of MIC by NPN uptake assay; type: cell membranes; details: time <= 15.0 min, TDE = time-dependent effect
# [21] = tested on: Cell membrane; experiment: Induction of outer membrane permeabilization in Escherichia coli ATCC25722 assessed as increase fluorescence intensity at 0.5 to 2 times of MIC by NPN uptake assay; type: cell membranes; details: time <= 15.0 min, TDE = time-dependent effect
# [22] = tested on: Cell membrane; experiment: Induction of outer membrane permeabilization in Vibrio parahaemolyticus ATCC17802 assessed as increase fluorescence intensity measured upto 15 mins by NPN uptake assay; type: cell membranes
# [23] = tested on: Cell membrane; experiment: Induction of outer membrane permeabilization in Escherichia coli ATCC25722 assessed as increase fluorescence intensity measured upto 15 mins by NPN uptake assay; type: cell membranes
# [24] = tested on: Lipopolysaccharide (LPS); experiment: Binding affinity to Escherichia coli LPS assessed as LPS neutralizing activity measured after 5 mins by LPS neutralization assay
# [25] = tested on: Lipopolysaccharide (LPS); experiment: Binding affinity to Escherichia coli LPS assessed as LPS neutralizing activity measured after 60 mins by LPS neutralization assay
# [26] = tested on: Lipopolysaccharide (LPS); experiment: Binding affinity to Escherichia coli LPS assessed as dissociation constant measured upto 600 sec by surface plasmon resonance imaging method
# [27] = Effect on morphological changes in POPC/POPG (3:1) bilayer membrane assessed as formation of bulge aggregates by measuring the height of bulges at 2 ug/ml incubated for 40 mins under neutral pH and low ionic strength by atomic force microscopic analysis; type: cell membranes; details: Cell membrane, dose 2.0 µg/ml
# [28] = tested on: Escherichia coli; experiment: In vivo antibacterial activity against Escherichia coli ATCC25722 infected in Balb/c mouse model assessed as reduction in bacterial CFU count on skin at 20 ug/ml applied 4 hrs after infection and measured after 120 mins; type: functional, organism-based; details: dose 20.0 µg/ml
# [29] = tested on: Escherichia coli; experiment: In vivo antibacterial activity against Escherichia coli ATCC25722 infected in Balb/c mouse model assessed as reduction in bacterial CFU count on skin at 20 ug/ml incubated for 6 hrs post infection and measured after 2 hrs post compound treatment; type: functional, organism-based; details: dose 20.0 µg/ml, time 8.0 hrs
# [30] = tested on: Vibrio parahaemolyticus; experiment: Induction of bacterial resistance in Vibrio parahaemolyticus ATCC17802 assessed as fold increase in MIC treated over 30 serial passages measured after 24 hrs; type: functional
# [31] = tested on: Staphylococcus aureus; experiment: Bactericidal activity against Staphylococcus aureus ATCC25923 assessed as killing rate at 0.5 X MIC measured upto 180 min by bacterial killing kinetic assay; type: functional, organism-based
# [32] = tested on: Escherichia coli; experiment: Bactericidal activity against Escherichia coli ATCC25722 assessed as killing rate at 0.5 X MIC measured upto 180 min by bacterial killing kinetic assay; type: functional, organism-based
Compound,MIC [1] [µg/mL],MIC [2] [µg/mL],MIC [3] [µg/mL],MIC [4] [µg/mL],MIC [5] [µg/mL],Time [6] [min],Activity [7],Activity [9],fold change (FC) [30],also measured
CC[C@H](C)[C@H](NC(=O)[C@H](CC(C)C)NC(=O)[C@H](CCCNC(=N)N)NC(=O)[C@H](CC(C)C)NC(=O)[C@H](CC(C)C)NC(=O)[C@H](CCCCN)NC(=O)[C@H](CCCCN)NC(=O)[C@H](Cc1ccccc1)NC(=O)[C@H](CC(C)C)NC(=O)CNC(=O)[C@@H](N)CC(C)C)C(=O)N[C@@H](CCCCN)C(=O)N[C@@H](CCCCN)C(=O)NCC(=O)N[C@@H](Cc1ccccc1)C(=O)N[C@@H](CCCCN)C(=O)N[C@@H](CC(C)C)C(=O)O (H-LGLFKKLLRLIKKGFKL-OH),1.17,9.38,9.38,9.38,4.69,30,Active,Active,–,Activity [8]: Tde; Activity [10]: Tde
CC[C@H](C)[C@H](NC(=O)[C@H](CCCCN)NC(=O)[C@H](CCCNC(=N)N)NC(=O)[C@H](CC(C)C)NC(=O)[C@H](CC(C)C)NC(=O)[C@H](CCCCN)NC(=O)[C@H](CCCCN)NC(=O)[C@H](Cc1ccccc1)NC(=O)[C@H](CC(C)C)NC(=O)CNC(=O)[C@@H](N)CCCNC(=N)N)C(=O)N[C@@H](CCCCN)C(=O)N[C@@H](CCCCN)C(=O)NCC(=O)N[C@@H](Cc1ccccc1)C(=O)N[C@@H](CCCCN)C(=O)N[C@@H](CCCCN)C(=O)O (H-RGLFKKLLRKIKKGFKK-OH),2.34,18.8,9.38,4.69,4.69,120,Active,Active,16,Activity [11]: Active; Activity [12]: Active; Activity [13]: Active; Activity [14]: Dose-Dependent Effect; Activity [15]: Dose-Dependent Effect; Activity [16]: Toxic; TIME [17]: 1 h; Activity [18]: 20.6%; Activity [19]: 99.5%; Activity [20]: Tde; Activity [21]: Tde; Activity [22]: Dose-Dependent Effect; Activity [23]: Dose-Dependent Effect; Activity [24]: inactive; Activity [25]: Active; Kd [26]: 23.5 µM; Activity [27]: 1 nm; Activity [28]: inactive; Activity [29]: Active
CC[C@H](C)[C@H](NC(=O)[C@H](CCCCN)NC(=O)[C@H](CC(C)C)NC(=O)[C@H](C)NC(=O)CNC(=O)[C@H](CC(N)=O)NC(=O)[C@H](CC(C)C)NC(=O)[C@@H](NC(=O)[C@H](CCCCN)NC(=O)[C@H](CCCCN)NC(=O)[C@H](Cc1c[nH]c2ccccc12)NC(=O)[C@H](Cc1ccccc1)NC(=O)[C@H](CCCCN)NC(=O)[C@H](CCCNC(=N)N)NC(=O)[C@H](CCCNC(=N)N)NC(=O)[C@@H](N)[C@@H](C)O)C(C)C)C(=O)N[C@@H](C)C(=O)O (H-TRRKFWKKVLNGALKIA-OH),4.69,18.8,9.38,9.38,4.69,30,–,–,–,Activity [31]: Active; Activity [32]: Active
CC1(C)S[C@@H]2[C@H](NC(=O)[C@H](N)c3ccccc3)C(=O)N2[C@H]1C(=O)O [AMPICILLIN],0.59,> 200,4.69,2.34,0.59,–,–,–,32,–
